Results: patent US10538497B2, “Compounds as indoleamine 2,3-dioxygenase inhibitors” (Merck Sharp & Dohme Corp., priority 2015, dated 2020)

What was measured:
IDO1 [1] = molecular target: T1, IDO1 (Homo sapiens (Human), UniProt P14902); assay: IDO1 Cellular Assay in Frozen HEK293 Cells Transiently Transfected with Human IDO1; format: cell-based; conditions: HEK293 cells transiently transfected with human IDO1; read-out: IDO1 HEK293 Cell Assay, IC50
IDO1 [2] = molecular target: T1, IDO1; assay: IDO1 Cellular Assay in Hela Cells Stimulated with IFNγ; format: cell-based; conditions: Hela cells stimulated with IFNγ 100 ng/mL; read-out: IDO1 HELA Cell Assay, IC50
IDO1 [3] = molecular target: T1, IDO1; assay: IDO1 Enzyme Assay; conditions: HIS-tagged recombinant IDO1, 40 nM
[4] = read-out: IDO1 Enzyme Assay, IC50

T1 sequence (P14902 whole entry): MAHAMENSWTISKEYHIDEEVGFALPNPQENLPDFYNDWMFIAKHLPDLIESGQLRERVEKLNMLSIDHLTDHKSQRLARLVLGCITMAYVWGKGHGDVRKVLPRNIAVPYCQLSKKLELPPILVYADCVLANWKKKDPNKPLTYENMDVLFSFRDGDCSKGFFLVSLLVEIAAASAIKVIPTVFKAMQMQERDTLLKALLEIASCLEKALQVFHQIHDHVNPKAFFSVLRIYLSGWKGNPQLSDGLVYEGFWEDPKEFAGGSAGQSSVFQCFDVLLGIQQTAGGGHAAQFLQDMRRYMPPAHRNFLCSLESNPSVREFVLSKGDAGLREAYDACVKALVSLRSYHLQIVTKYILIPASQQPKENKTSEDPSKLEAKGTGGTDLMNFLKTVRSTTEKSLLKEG

`O=C(CSc1nonc1/C(=N/O)Nc1ccc(F)c(Br)c1)NC1CC1` [Example 113, 2-({4-[N-(3-bromo-4-fluorophenyl)-N′-hydroxycarbamimidoyl]-1,2,5-oxadiazol-3-yl}sulfanyl)-N-cyclopropylacetamide] showed an IC50 (IDO1 [1]) of 0.0354 µM, an IC50 (IDO1 [2]) of 0.0765 µM and an IC50 (IDO1 [3]; IDO1 Enzyme Assay, IC50, nM) of 47.3 nM.
`O=C(CSc1nonc1C(=NO)Nc1ccc(F)c(Br)c1)NC1CCC1` [Example 114, 2-({4-[N-(3-bromo-4-fluorophenyl)-N′-hydroxycarbamimidoyl]-1,2,5-oxadiazol-3-yl}sulfanyl)-N-cyclobutylacetamide] showed an IC50 (IDO1 [1]) of 0.097 µM, an IC50 (IDO1 [2]) of 0.148 µM and an IC50 (IDO1 [3]; IDO1 Enzyme Assay, IC50, nM) of 36.9 nM.
`CC(=O)CSc1nonc1/C(=N/O)Nc1ccc(F)c(Br)c1` [Example 115, N-(3-bromo-4-fluorophenyl)-N′-hydroxy-4-[(2-oxopropyl)sulfanyl]-1,2,5-oxadiazole-3-carboximidamide] showed an IC50 (IDO1 [1]) of 0.105 µM, an IC50 (IDO1 [2]) of 0.168 µM and an IC50 (IDO1 [3]; [4]) of 51 nM.
Work on `CN1C(=O)NC[C@H]1CSc1nonc1/C(=N/O)Nc1ccc(F)c(Br)c1` [Example 121, N-(3-bromo-4-fluorophenyl)-N′-hydroxy-4-({[(4S)-3-methyl-2-oxoimidazolidin-4-yl]methyl}sulfanyl)-1,2,5-oxadiazole-3-carboximidamide] yielded an IC50 (IDO1 [1]) of 0.0458 µM, an IC50 (IDO1 [2]) of 0.0397 µM and an IC50 (IDO1 [3]; [4]) of 47.7 nM.
With `CN1C[C@@H](CSc2nonc2/C(=N/O)Nc2ccc(F)c(Br)c2)NC1=O` [Example 122, N-(3-bromo-4-fluorophenyl)-N′-hydroxy-4-({[(4S)-1-methyl-2-oxoimidazolidin-4-yl]methyl}sulfanyl)-1,2,5-oxadiazole-3-carboximidamide] the IC50 (IDO1 [1]) was 0.0233 µM, the IC50 (IDO1 [2]) was 0.0267 µM and the IC50 (IDO1 [3]; [4]) was 37.7 nM.
`CN1C[C@H](CSc2nonc2/C(=N/O)Nc2ccc(F)c(Br)c2)NC1=O` [Example 123, N-(3-bromo-4-fluorophenyl)-N′-hydroxy-4-({[(4R)-1-methyl-2-oxoimidazolidin-4-yl]methyl}sulfanyl)-1,2,5-oxadiazole-3-carboximidamide] was tested, and the IC50 (IDO1 [1]) was 0.0378 µM, the IC50 (IDO1 [2]) was 0.0757 µM and the IC50 (IDO1 [3]; [4]) was 44.2 nM.
`O=C1NCC(CSc2nonc2/C(=N/O)Nc2ccc(F)c(Br)c2)O1` (stereo not drawn) [Example 124, N-(3-bromo-4-fluorophenyl)-N′-hydroxy-4-{[(2-oxo-1,3-oxazolidin-5-yl)methyl]sulfanyl}-1,2,5-oxadiazole-3-carboximidamide] gave an IC50 (IDO1 [1]) of 0.0656 µM, an IC50 (IDO1 [2]) of 0.0562 µM and an IC50 (IDO1 [3]; [4]) of 34.5 nM.
Work on `O/N=C(\Nc1ccc(F)c(Br)c1)c1nonc1SCCN1CCOCC1` [Example 126, N-(3-bromo-4-fluorophenyl)-N′-hydroxy-4-[(2-morpholin-4-ylethyl)sulfanyl]-1,2,5-oxadiazole-3-carboximidamide] yielded an IC50 (IDO1 [1]) of 0.0529 µM, an IC50 (IDO1 [2]) of 0.0926 µM and an IC50 (IDO1 [3]; [4]) of 57.5 nM.
Work on `CCCCNC(=O)NCCSc1nonc1C(=NO)Nc1ccc(F)c(Br)c1` [Example 127, N-(3-bromo-4-fluorophenyl)-4-({2-[(bulylcarbamoyl)amino]ethyl}sulfanyl)-N′-hydroxy-1,2,5-oxadiazole-3-carboximidamide] yielded an IC50 (IDO1 [1]) of 0.115 µM, an IC50 (IDO1 [2]) of 0.219 µM and an IC50 (IDO1 [3]; [4]) of 33.5 nM.
`CCOC(=O)NC(=O)NCCSc1nonc1C(=NO)Nc1ccc(F)c(Br)c1` [Example 128, ethyl {[2-({4-[N-(3-bromo-4-fluorophenyl)-N′-hydroxycarbamimidoyl]-1,2,5-oxadiazol-3-yl}sulfanyl)ethyl]carbamoyl} carbamate] gave an IC50 (IDO1 [1]) of 0.149 µM, an IC50 (IDO1 [2]) of 0.169 µM and an IC50 (IDO1 [3]; [4]) of 110 nM.
`O=C(NCCSc1nonc1C(=NO)Nc1ccc(F)c(Br)c1)NC1CCCC1` [Example 129, N-(3-bromo-4-fluorophenyI)-4-({2-[(cyclopentylcarbamoyl)amino]ethyl}sulfanyl)-N′-hydroxy-1,2,5-oxadiazole-3-carboximidamide] gave an IC50 (IDO1 [1]) of 0.258 µM, an IC50 (IDO1 [2]) of 0.702 µM and an IC50 (IDO1 [3]; [4]) of 35.3 nM.
Work on `O=C(NCCSc1nonc1C(=NO)Nc1ccc(F)c(Br)c1)NCC1CCOCC1` [Example 130, N-(3-bromo-4-fluorophenyl)-N′-hydroxy-4-[(2-{[(tetrahydro-2H-pyran-4-ylmethyl)carbamoyl]amino}ethyl)sulfanyl]-1,2,5-oxadiaxole-3-carboximidamide] yielded an IC50 (IDO1 [1]) of 0.206 µM, an IC50 (IDO1 [2]) of 0.371 µM and an IC50 (IDO1 [3]; [4]) of 37 nM.
For `O=C(NCCSc1nonc1C(=NO)Nc1ccc(F)c(Br)c1)NCc1ccco1` [Example 131, N-(3-bromo-4-fluorophenyl)-4-[(2-{[(furan-2-ylmethyl)carbamoyl]amino}ethyl)sulfanyl]-N′-hydroxy-1,2,5-oxadiazole-3-carboximidamide], the IC50 (IDO1 [1]) was 0.0667 µM, the IC50 (IDO1 [2]) was 0.167 µM and the IC50 (IDO1 [3]; IDO1 Enzyme Assay, IC50, nM) was 34.1 nM.
Work on `COCCNC(=O)NCCSc1nonc1C(=NO)Nc1ccc(F)c(Br)c1` [Example 132, N-(3-bromo-4-fluorophenyl)-N′-hydroxy-4-[(2-{[(2-methoxyethyl)carbamoyl]amino}ethyl)sulfanyl]-1,2,5-oxadiazole-3-carboximidamide] yielded an IC50 (IDO1 [1]) of 0.0331 µM, an IC50 (IDO1 [2]) of 0.0317 µM and an IC50 (IDO1 [3]; IDO1 Enzyme Assay, IC50, nM) of 32.1 nM.
Work on `Cn1c(CSc2nonc2/C(=N/O)Nc2ccc(F)c(Cl)c2)n[nH]c1=O` [Example 133, N-(3-chloro-4-fluorophenyl)-N′-hydroxy-4-{[(4-methyl-5-oxo-4,5-dihydro-1H-1,2,4-triazol-3-yl)methyl]sulfanyl}-1,2,5-oxadiazole-3-carboximidamide] yielded an IC50 (IDO1 [1]) of 0.226 µM, an IC50 (IDO1 [2]) of 0.235 µM and an IC50 (IDO1 [3]; [4]) of 71.5 nM.
`CC(O)CNC(=O)CSc1nonc1C(=NO)Nc1ccc(F)c(Br)c1` (stereo not drawn) [Example 138, 2-({4-[N-(3-bromo-4-fluorophenyl)-N′-hydroxycarbamimidoyl]-1,2,5-oxadiazol-3-yl}sulfanyl)-N-(2-hydroxypropyl)acetamide] showed an IC50 (IDO1 [1]) of 0.06 µM, an IC50 (IDO1 [2]) of 0.0547 µM and an IC50 (IDO1 [3]; IDO1 Enzyme Assay, IC50, nM) of 38.7 nM.
Compound `O=c1[nH]nc(CCSc2nonc2/C(=N/O)Nc2ccc(F)c(Br)c2)o1` [Example 141, N-(3-bromo-4-fluorophenyl)-N′-hydroxy-4-{[2-(5-oxo-4,5-dihydro-1,3,4-oxadiazol-2-yl)ethyl]sulfanyl}-1,2,5-oxadiazole-3-carboximidamide] has an IC50 (IDO1 [1]) of 0.131 µM, an IC50 (IDO1 [2]) of 0.112 µM and an IC50 (IDO1 [3]; [4]) of 72.2 nM.
In the case of `CC(=O)NCCSc1nonc1/C(=N/O)Nc1ccc(F)c(C(F)F)c1` [Example 142, N-{2-[(4-{N-[3-(difluoromethyl)-4-fluorophenyl]-N′-hydroxycarbamimidoyl}-1,2,5-oxadiazol-3-yl)sulfanyl]ethyl}acetamide], the IC50 (IDO1 [1]) is reported as 0.0469 µM, the IC50 (IDO1 [2]) is reported as 0.0572 µM and the IC50 (IDO1 [3]; [4]) is reported as 54 nM.
For `C[C@@H](O)[C@@H](CO)NC(=O)CSc1nonc1/C(=N/O)Nc1ccc(F)c(Br)c1` [Example 143, 2-({4-[N-(3-bromo-4-fluorophenyl)-N′-hydroxycarbamimidoyl]-1,2,5-oxadiazol-3-yl}sulfanyl)-N-[(1R,2R)-2-hydroxy-1-(hydroxymethyl)propyl]acetamide], the IC50 (IDO1 [1]) was 0.0651 µM, the IC50 (IDO1 [2]) was 0.0348 µM and the IC50 (IDO1 [3]; [4]) was 53.9 nM.
`CN1C(=O)NC[C@@H]1CSc1nonc1/C(=N/O)Nc1ccc(F)c(C#N)c1` [Example 150, N-(3-cyano-4-fluorophenyl)-N′-hydroxy-4-({[(4R)-3-methyl-2-oxoimidazolidin-4-yl]methyl}sulfanyl)-1,2,5-oxadiazole-3-carboximidamide] showed an IC50 (IDO1 [1]) of 0.422 µM, an IC50 (IDO1 [2]) of 0.82 µM and an IC50 (IDO1 [3]; [4]) of 173 nM.
For `Cc1nccn1CCSc1nonc1C(=NO)Nc1ccc(F)c(Br)c1` [Example 151, N-(3-bromo-4-fluorophenyl)-N′-hydroxy-4-{[2-(2-methyl-1H-imidazol-1-yl)ethyl]sulfanyl}-1,2,5-oxadiazole-3-carboximidamide], the IC50 (IDO1 [1]) was 0.0793 µM, the IC50 (IDO1 [2]) was 0.156 µM and the IC50 (IDO1 [3]; IDO1 Enzyme Assay, IC50, nM) was 96.3 nM.
`ON=C(Nc1ccc(F)c(Br)c1)c1nonc1SCCc1cscn1` [Example 152, N-(3-bromo-4-fluorophenyl)-N′-hydroxy-4-{[2-(1,3-thiazol-4-yl)ethyl]sulfanyl}-1,2,5-oxadiazole-3-carboximidamide] was tested, and the IC50 (IDO1 [1]) was 0.166 µM, the IC50 (IDO1 [2]) was 0.331 µM and the IC50 (IDO1 [3]; IDO1 Enzyme Assay, IC50, nM) was 97.6 nM.
`Cn1ccnc1CSc1nonc1C(=NO)Nc1ccc(F)c(Br)c1` [Example 153, N-(3-bromo-4-fluorophenyl)-N′-hydroxy-4-{[(1-methyl-1H-imidazol-2-yl)methyl]sulfanyl}-1,2,5-oxadiazole-3-carboximidamide] showed an IC50 (IDO1 [1]) of 0.0657 µM, an IC50 (IDO1 [2]) of 0.0694 µM and an IC50 (IDO1 [3]; IDO1 Enzyme Assay, IC50, nM) of 85.4 nM.
Compound `ON=C(Nc1ccc(F)c(Br)c1)c1nonc1SCCn1cncn1` [Example 154, N-(3-bromo-4-fluorophenyl)-N′-hydroxy-4-{[2-(1H-1,2,4-triazol-1-yl)ethyl]sulfanyl}-1,2,5-oxadiazole-3-carboximidamide] has an IC50 (IDO1 [1]) of 0.0261 µM, an IC50 (IDO1 [2]) of 0.041 µM and an IC50 (IDO1 [3]; IDO1 Enzyme Assay, IC50, nM) of 31.4 nM.
In the case of `Cc1nc(CSc2nonc2C(=NO)Nc2ccc(F)c(Br)c2)no1` [Example 155, N-(3-bromo-4-fluorophenyl)-N′-hydroxy-4-{[(5-methyl-1,2,4-oxadiazol-3-yl)methyl]sulfanyl}-1,2,5-oxadiazole-3-carboximidamide], the IC50 (IDO1 [1]) is reported as 0.218 µM, the IC50 (IDO1 [2]) is reported as 0.301 µM and the IC50 (IDO1 [3]; IDO1 Enzyme Assay, IC50, nM) is reported as 77.7 nM.
With `ON=C(Nc1ccc(F)c(Br)c1)c1nonc1SCc1ncon1` [Example 156, N-(3-bromo-4-fluorophenyl)-N′-hydroxy-4-[(1,2,4-oxadiazol-3-ylmethyl)sulfanyl]-1,2,5-oxadiazole-3-carboximidamide] the IC50 (IDO1 [1]) was 0.0469 µM, the IC50 (IDO1 [2]) was 0.114 µM and the IC50 (IDO1 [3]; IDO1 Enzyme Assay, IC50, nM) was 58.8 nM.
`ON=C(Nc1ccc(F)c(Br)c1)c1nonc1SCc1nccs1` [Example 157, N-(3-bromo-4-fluorophenyl)-N′-hydroxy-4-[(1,3-thiazol-2-ylmethyl)sulfanyl]-1,2,5-oxadiazole-3-carboximidamide] gave an IC50 (IDO1 [1]) of 0.104 µM, an IC50 (IDO1 [2]) of 0.113 µM and an IC50 (IDO1 [3]; IDO1 Enzyme Assay, IC50, nM) of 63.8 nM.
Work on `ON=C(Nc1ccc(F)c(Br)c1)c1nonc1SCC1CCCNC1` (stereo not drawn) [Example 158, N-(3-bromo-4-fluorophenyl)-N′-hydroxy-4-[(piperidin-3-ylmethyl)sulfanyl]-1,2,5-oxadiazole-3-carboximidamide] yielded an IC50 (IDO1 [1]) of 0.072 µM, an IC50 (IDO1 [2]) of 0.233 µM and an IC50 (IDO1 [3]; IDO1 Enzyme Assay, IC50, nM) of 95.7 nM.
